Positions of bridges follow the written chain, without caps; N, C: chain ends. Residues, ends and D or L forms follow the SMILES beside them. No end group written: not given here.
Experiments:
IGFBP-1 [1] = molecular target: T1, IGFBP-1 (Homo sapiens, UniProt P08833); assay: BIAcore competition assay: IGFBP-1 binding to IGF-I; design: made in house; host or cells: CHO cells; conditions: for Fold potency reduction IC50 (BP1-01) / IC50 (mut): locked-helix variants
T1 sequence (P08833 26-259): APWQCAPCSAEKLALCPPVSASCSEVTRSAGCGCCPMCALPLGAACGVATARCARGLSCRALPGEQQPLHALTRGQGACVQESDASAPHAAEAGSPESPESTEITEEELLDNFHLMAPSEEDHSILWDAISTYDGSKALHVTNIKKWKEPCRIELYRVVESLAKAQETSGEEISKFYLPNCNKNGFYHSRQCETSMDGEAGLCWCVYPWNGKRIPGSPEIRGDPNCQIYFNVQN
Protocol: Two series of synthetic peptide variants were generated to determine which side chains of the BP1-01 peptide might contribute directly to binding IGFBP-1. In the first series an alanine-scanning approach (Cunningham and Wells, Science, 244: 1081-1085 (1989)) was used to remove that portion of each side chain beyond the beta carbon. The contribution of these atoms to the free energy of binding of the peptide to IGFBP-1 was then assessed by measuring the potency (IC50) of the variant for inhibiting IGFBP-1 binding to IGF-I or IGF-II in a BIAcore™ competition assay, analogous to that described for IGFBP-3.
Peptides were assayed in a BIAcore™ assay as described in WO 98/45427, supra. These inhibition assays (FIG. 35) compared the relative potency of these peptides for blocking the interaction of IGFBP-1 with IGF-1.
The peptide BP1-625 fraction was lyophilized and resuspended in 100 mM HEPES buffer, pH 7.2.

IGFBP-1 [2] = molecular target: T1, IGFBP-1; assay: KIRA cell-based assay of IGF-like activity displaced by peptides from IGF-1/IGFBP-1; conditions: 2 nM IGF-1, […] IGFBP-1
Protocol: A cell-based (KIRA) assay was previously described for measuring the amount of IGF-like activity displaced by peptides from mixtures of IGF-1 and binding proteins (Lowman et al., supra, 1998; WO 98/45427, supra). The KIRA assay was used to compare in vitro bioactivity of BP1-16, BP1-02, BP1-25, and BP1-40. […] IGF-1 and peptide were mixed and added to cells expressing IGF receptor for 30 min, then IGFBP-1 was added for an additional 1 h.

IGFBP-1 [3] = molecular target: T1, IGFBP-1; assay: BIAcore direct binding kinetics of peptides on immobilized IGFBP-1; design: made in house; host or cells: CHO cells; conditions: for Kd: koff/kon, BIAcore kinetics, read-out: KD ± (SD or SE)
Description: WO 98/45427 published Oct. 15, 1998 discloses the preparation and characterization of the IGFBP-1 displacer peptide BP1-01 ([…]) (SEQ ID NO:26). The kinetics of BP1-01 peptide variants were examined in a BIAcore™ (BIAcore, Inc., Piscataway, N.J.) assay using IGFBP-1 covalently coupled via EDC/NHS (as described by the manufacturer) to a dextran chip. […] The latter implies a half-life for peptide dissociation from IGFBP-1 of approximately 28 sec. The association rate constant is moderately fast, consistent with the notion that the peptide may not undergo significant conformation change upon binding to IGFBP-1.
Inhibition assays for measuring relative potencies of peptides for inhibiting IGFBP-1 binding to IGF-I have been described (e.g., WO 98/45427, supra). Peptides described herein were of sufficient binding affinity to allow for direct measurement of binding affinities by surface plasmon resonance (SPR) using a BIACORE™ system. The direct binding kinetics of IGFBP-1 peptides were measured by injecting a series of 2-fold diluted peptides in running buffer (0.05% TWEEN 20™ in PBS) over a carboxy-methyl (CM) biosensor chip coupled with about 590-1000 RU of IGFBP-1 at a flow rate of 50 μl/min on a BIACORE 2000™ or BIACORE 3000™ surface-plasmon-resonance instrument. The immobilization of IGFBP-1 was performed through EDC/NHS chemistry as described by the manufacturer. Peptides were also injected through a flow cell containing IGFBP-3 as background control. Since the off-rate for most of the peptides is relatively fast (in the range of 2×10^−2 s^−1), off-rate measurement was set for 30 minutes. This allowed for regeneration of IGFBP-1 on the chip by simple dissociation, rather than by addition of eluent. For each dilution of peptides, a global fit of the sensorgram data was performed using a 1:1 Langmuir binding model.

Molecule | Fold potency reduction IC50 (BP1-01) / IC50 (mut) (IGFBP-1 [1]) | Kd (IGFBP-1 [3]) [nM] | further results
GQQSCAAGPLQWLCEHYFSTYGR (disulfide 5-14 (inferred)) [BP1-625] |  |  | improved potency over BP1-01 (IGFBP-1 [1]; 9-10 nM IGFBP-1): about 20 fold
acRPLEWLAEKYFE (Ac-RPLEWLAEKYFE; bridge 4-12) [(i + 8)B] | 8 |  | 
CC(C)C[C@@H]1NC(=O)[C@H](Cc2c[nH]c3ccccc23)NC(=O)[C@H](CCC(N)=O)NC(=O)[C@H](CC(C)C)NC(=O)[C@@H]2CCCN2C(=O)CNC(=O)[C@H](C)NC(=O)[C@H](CCCNC(=N)N)NC(=O)[C@@H](NC(=O)[C@H](CO)NC(=O)[C@H](CCC(N)=O)NC(=O)[C@H](CCC(N)=O)NC(=O)CN)CSSC[C@@H](C(=O)N[C@@H](CCC(=O)O)C(=O)N[C@@H](CCCCN)C(=O)N[C@@H](Cc2ccc(O)cc2)C(=O)N[C@@H](Cc2ccccc2)C(=O)N[C@@H](CO)C(=O)N[C@H](C(=O)N[C@@H](Cc2ccc(O)cc2)C(=O)O)[C@@H](C)O)NC1=O [BP1-40] (H-GQQSCRAGPLQWLCEKYFSTY-OH; disulfide 5-14; N-terminus and C-terminus assumed) |  | 27 ± 21 | EC20 (concentration at which 20% of maximal IGF-1 activity is observed) (IGFBP-1 [2]): 10 to 20 nM
acLEWLAEKYFE (Ac-LEWLAEKYFE; bridge 2-10) [(i + 8)A] | >200 |  | 
CC(C)C[C@@H]1NC(=O)[C@H](Cc2c[nH]c3ccccc23)NC(=O)[C@H](CCC(N)=O)NC(=O)[C@H](CC(C)C)NC(=O)[C@@H]2CCCN2C(=O)CNC(=O)[C@H](C)NC(=O)[C@H](CCCNC(=N)N)NC(=O)[C@@H](NC(=O)CNC(=O)[C@@H](NC(=O)[C@H](CCC(=O)O)NC(=O)[C@@H](N)CO)C(C)C)CSSC[C@@H](C(=O)N[C@@H](CCC(=O)O)C(=O)N[C@@H](CCCCN)C(=O)N[C@@H](Cc2ccc(O)cc2)C(=O)N[C@@H](Cc2ccccc2)C(=O)N[C@@H](CO)C(=O)N[C@H](C(=O)N[C@@H](Cc2ccc(O)cc2)C(N)=O)[C@@H](C)O)NC1=O [BP1-21A] (H-SEVGCRAGPLQWLCEKYFSTY-NH2; disulfide 5-14; N-terminus assumed) |  | 41 ± 17 | IGF-I Inhibition IC50 (114)/IC50 (mut) (IGFBP-1 [1]; relative to BP1-14): 3
CC(C)C[C@@H]1NC(=O)[C@H](Cc2c[nH]c3ccccc23)NC(=O)[C@H](CCC(N)=O)NC(=O)[C@H](CC(C)C)NC(=O)[C@@H]2CCCN2C(=O)CNC(=O)[C@H](C)NC(=O)[C@H](CCCNC(=N)N)NC(=O)[C@@H](N)CSSC[C@@H](C(=O)N[C@@H](CCC(=O)O)C(=O)N[C@@H](CCCCN)C(=O)N[C@@H](Cc2ccc(O)cc2)C(=O)N[C@@H](Cc2ccccc2)C(=O)NCC(N)=O)NC1=O [BP1-01] (H-CRAGPLQWLCEKYFG-NH2; disulfide 1-10) | 1 |  | 
acRAGPLEWLAEKYEG (Ac-RAGPLEWLAEKYEG; bridge 6-13; not fully specified) [(i + 7)D] | 8 |  | 
CC(C)C[C@@H]1NC(=O)[C@H](Cc2c[nH]c3ccccc23)NC(=O)[C@H](CCC(N)=O)NC(=O)[C@H](CC(C)C)NC(=O)[C@@H]2CCCN2C(=O)CNC(=O)[C@H](C)NC(=O)[C@H](CCCNC(=N)N)NC(=O)[C@@H](NC(=O)CNC(=O)[C@@H](NC(=O)[C@H](CCC(=O)O)NC(=O)[C@@H](N)CO)C(C)C)CSSC[C@@H](C(=O)N[C@@H](CCC(=O)O)C(=O)N[C@@H](CCCCN)C(=O)N[C@@H](Cc2ccc(O)cc2)C(=O)N[C@@H](Cc2ccccc2)C(=O)NCC(=O)O)NC1=O [BP1-02] (H-SEVGCRAGPLQWLCEKYFG-OH; disulfide 5-14; N-terminus and C-terminus assumed) |  | 210 ± 46 | EC20 (concentration at which 20% of maximal IGF-1 activity is observed) (IGFBP-1 [2]): 150 to 200 nM; half-life for peptide dissociation from IGFBP-1 (IGFBP-1 [3]): approximately 28 sec; kon (IGFBP-1 [3]; peptide on immobilized IGFBP-1, read-out: association rate constant): 230000 M⁻¹ s⁻¹
acRAGPLEWLAEKYFE (Ac-RAGPLEWLAEKYFE; bridge 6-14; not fully specified) [(i + 8)C] | 6 |  | 

— patent publication US7423017B2, “Method for treating cartilage disorders” (Genentech, Inc., priority 1997, dated 2008)
